Active and inactive are the calls of the source. The rule behind the calls is not given here.

Data set [1] addresses Focal adhesion kinase 1 (Homo sapiens) (UniProt Q05397). The data set can be described thus: Inhibition of osteopontin-induced FAK phosphorylation in human A549 cells at 1 to 2 uM after 15 mins by Western blot method. It is filed as cell-based.
In data set [2] the target is RAC-alpha serine/threonine-protein kinase (Homo sapiens) (UniProt P31749). The data set can be described thus: Inhibition of osteopontin-induced AKT phosphorylation in human A549 cells at 1 to 2 uM after 15 mins by Western blot method. It is filed as cell-based.
The species named for data set [3] is Homo sapiens. The data set can be described thus: Inhibition of FAK/AKT/ROCK in human H1299 cells assessed as reduction in osteopontin-induced cell motility at 1 to 2 uM preincubated for 30 mins followed by osteopontin addition measured after 24 hrs by Diff-quick staining based matrigel-mediated Boyden chamber assay.
Data set [4] relates to A549. Briefly: Effect on total LIMK2 expression level in human A549 cells at 1 to 2 uM after 24 hrs by Western blot method. The data set is classed as ADME, cell-based. The settings on record: a549, 24 h.
The next data set concerns Mus musculus. The data set can be described thus: Toxicity in BalB/c nude mouse assessed as change in body weight at 5 mg/kg, ip administered once daily for 8 weeks measured every week of compound dosing. The data set is classed as organism-based. The settings on record: in vivo, 1344 h.
The species named for data set [5] is Homo sapiens. The data set can be described thus: Inhibition of FAK/AKT/ROCK in human H1299 cells assessed as reduction in osteopontin-induced cell invasion at 1 to 2 uM preincubated for 30 mins followed by osteopontin addition measured after 24 hrs by Diff-quick staining based matrigel-mediated Boyden chamber assay.
Data set [6] relates to A549. Briefly: Inhibition of FAK/AKT/ROCK in human A549 cells assessed as reduction in osteopontin-induced lamellipodia formation at 2 uM after 24 hrs by rhodamine phalloidin/DAPI staining based confocal microscopic analysis. The data set is classed as cell-based.
Data set [7] relates to A549. The data set can be described thus: Inhibition of FAK/AKT/ROCK in human A549 cells assessed as reduction in osteopontin-induced cell motility at 2 uM preincubated for 30 mins followed by osteopontin addition measured after 24 hrs by Diff-quick staining based matrigel-mediated Boyden chamber assay relative to control.
Data set [8] concerns A549. Briefly: Inhibition of FAK/AKT/ROCK in human A549 cells assessed as reduction in osteopontin-induced LIMK1/2 phosphorylation after 24 hrs by Western blot method. The data set is classed as cell-based.
Data set [9] relates to A549. The data set can be described thus: Effect on total AKT expression level in human A549 cells at 1 to 2 uM after 15 mins by Western blot method. It is filed as ADME, cell-based. The settings on record: a549, 0.25 h.
The test system of data set [10] is A549. Briefly: Effect on total FAK expression levels in human A549 cells at 1 to 2 uM measured after 15 mins by Western blot method. It is filed as ADME, cell-based. The settings on record: a549, 0.25 h.
The test system of data set [11] is A549. Briefly: Inhibition of FAK/AKT/ROCK in human A549 cells assessed as reduction in osteopontin-induced cofilin phosphorylation after 24 hrs by Western blot method. The data set is classed as cell-based.
Data set [12] relates to A549. Briefly: Inhibition of FAK/AKT/ROCK in human A549 cells assessed as reduction in osteopontin-induced cell invasion at 2 uM preincubated for 30 mins followed by osteopontin addition measured after 24 hrs by Diff-quick staining based matrigel-mediated Boyden chamber assay relative to control.
For data set [13], the system named is A549. Briefly: Anticancer activity against human A549 cells xenografted in BalB/c nude mouse assessed as reduction in osteopontin-induced lung metastasis at 5 mg/kg, ip administered once daily for 8 weeks by India ink staining based method. The data set is classed as functional, organism-based.
The subject of data set [14] is A549. Briefly: Inhibition of FAK/AKT/ROCK in human A549 cells assessed as reduction in osteopontin-induced cell invasion at 1 uM preincubated for 30 mins followed by osteopontin addition measured after 24 hrs by Diff-quick staining based matrigel-mediated Boyden chamber assay relative to control.
Data set [15] has as its system A549. Briefly: Effect on total cofilin protein expression level in human A549 cells at 1 to 2 uM after 24 hrs by Western blot method. The data set is classed as ADME, cell-based. The settings on record: a549, 24 h.
The test system of data set [16] is A549. The data set can be described thus: Anti-invasive activity in human A549 cells assessed as reduction in osteopontin-induced ROCK1 expression after 24 hrs by Western blot method. The data set is classed as functional, cell-based.
The subject of data set [17] is A549. The data set can be described thus: Inhibition of FAK/AKT/ROCK in human A549 cells assessed as reduction in osteopontin-induced cell motility at 1 uM preincubated for 30 mins followed by osteopontin addition measured after 24 hrs by Diff-quick staining based matrigel-mediated Boyden chamber assay relative to control.
In data set [18] the test system is A549. The data set can be described thus: Cytotoxicity against human A549 cells assessed as reduction in cell viability at 2 to 8 uM after 24 hrs by MTT assay. It is filed as cell-based. To be noted: a549, 24 h.
Data set [19] in a line: Cytotoxicity against human A549 cells after 24 hrs by MTT assay. It is filed as cell-based. The settings on record: read-out: MNCC.

Chain of Focal adhesion kinase 1 (Homo sapiens) (Q05397 2-1052 limits assumed): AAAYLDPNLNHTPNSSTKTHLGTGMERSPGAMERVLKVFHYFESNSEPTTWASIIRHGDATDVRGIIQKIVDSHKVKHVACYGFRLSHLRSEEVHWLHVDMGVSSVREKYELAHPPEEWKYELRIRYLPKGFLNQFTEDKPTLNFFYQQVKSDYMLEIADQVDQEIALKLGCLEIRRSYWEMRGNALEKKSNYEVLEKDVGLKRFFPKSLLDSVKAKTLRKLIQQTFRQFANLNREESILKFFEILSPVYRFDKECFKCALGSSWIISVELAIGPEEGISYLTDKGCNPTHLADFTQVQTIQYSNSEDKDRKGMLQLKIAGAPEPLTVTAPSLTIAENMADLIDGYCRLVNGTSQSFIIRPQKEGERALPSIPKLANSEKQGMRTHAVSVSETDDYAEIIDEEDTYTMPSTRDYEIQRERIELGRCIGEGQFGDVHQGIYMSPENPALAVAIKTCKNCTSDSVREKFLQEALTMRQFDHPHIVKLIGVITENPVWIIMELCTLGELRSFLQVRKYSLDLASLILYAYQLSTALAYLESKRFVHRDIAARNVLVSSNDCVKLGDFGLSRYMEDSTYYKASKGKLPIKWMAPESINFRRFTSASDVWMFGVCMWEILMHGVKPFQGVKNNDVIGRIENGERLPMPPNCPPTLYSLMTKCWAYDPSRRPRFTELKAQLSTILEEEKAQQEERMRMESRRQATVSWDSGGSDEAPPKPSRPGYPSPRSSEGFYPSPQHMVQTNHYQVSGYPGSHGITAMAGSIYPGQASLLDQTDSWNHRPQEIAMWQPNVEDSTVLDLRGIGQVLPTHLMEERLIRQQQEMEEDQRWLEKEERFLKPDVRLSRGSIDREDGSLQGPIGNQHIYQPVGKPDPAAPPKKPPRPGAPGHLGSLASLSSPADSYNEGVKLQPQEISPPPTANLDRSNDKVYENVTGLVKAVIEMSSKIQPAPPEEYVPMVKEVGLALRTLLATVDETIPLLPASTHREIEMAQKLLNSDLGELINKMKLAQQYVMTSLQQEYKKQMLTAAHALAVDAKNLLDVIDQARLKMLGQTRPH
Chain of RAC-alpha serine/threonine-protein kinase (Homo sapiens) (P31749 whole entry): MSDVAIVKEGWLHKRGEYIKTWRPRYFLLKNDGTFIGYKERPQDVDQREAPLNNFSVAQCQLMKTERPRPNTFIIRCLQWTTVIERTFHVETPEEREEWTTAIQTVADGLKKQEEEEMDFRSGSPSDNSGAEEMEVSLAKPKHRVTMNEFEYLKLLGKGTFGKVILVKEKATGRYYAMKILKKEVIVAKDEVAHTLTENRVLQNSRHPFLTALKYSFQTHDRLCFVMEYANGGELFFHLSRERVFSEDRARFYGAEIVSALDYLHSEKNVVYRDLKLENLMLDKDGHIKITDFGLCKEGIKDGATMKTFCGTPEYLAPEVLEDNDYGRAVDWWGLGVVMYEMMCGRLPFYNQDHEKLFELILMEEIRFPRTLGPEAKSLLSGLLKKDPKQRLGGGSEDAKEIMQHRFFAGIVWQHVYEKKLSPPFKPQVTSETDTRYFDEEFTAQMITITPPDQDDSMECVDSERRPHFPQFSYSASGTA

Regarding `CC1=CC(=O)c2c(O)cccc2C1=O` [PLUMBAGIN], the inhibition entry (in [1]; in data set [2]; in the data set listed under Homo sapiens [3]; in the data set listed under Homo sapiens [5]; in the data set on A549 [6]) was “Active” in each case. Besides, the Activity entry in the data set with A549 [4] is “Non-Toxic”; in the data set on Mus musculus it was “Non-Toxic”; in the data set on A549 [9], “Non-Toxic”; in the data set with A549 [10], “Non-Toxic”; in the data set with A549 [15], “Non-Toxic”; in the data set on A549 [16], “Dose-dependent effect”. In addition, the Activity entry in the data set with A549 [18] is “Dose-dependent effect”. Further, the inhibition was 74% in the data set with A549 [7]; “Dose-dependent effect” in the data set with A549 [8]; “Dose-dependent effect” in the data set on A549 [11]; 67% in the data set with A549 [12]; 38% in the data set on A549 [14]; 52% with A549 [17]. The outcome in the data set with A549 [13] was Active. In addition, the MNTC at 24 h in data set [19] is at most 2000 nM.

Source of the values: ChEMBL document CHEMBL4011611, “Plumbagin reduces osteopontin-induced invasion through inhibiting the Rho-associated kinase signaling pathway in A549 cells and suppresses osteopontin-induced lung metastasis in BalB/c mice” (Bioorg Med Chem Lett, 2017).
